In US7378111B2, “Regulation of GSK-3α activity for the treatment or prevention of Alzheimer's disease” (The Trustees of the University of Pennsylvania, priority 2002, dated 2008):
Numbered stars: 1 amine (or outer) side, 2 acyl side, 3 side chain; on linkers, the order of the positions; unused ones are H or OH. Square brackets hold non-standard residues; d marks the D form. Peptide text beside a SMILES is read from it. * marks the point of attachment. X1 = CC(N[*:1])C(=O)C(F)(F)C(=O)[*:2]; Boc = CC(C)(C)OC(=O)*

Key:
[1] = tested on: γ-secretase cleavage of APP in CHO-APP695 cells; assay: 35S-methionine labeling, immunoprecipitation and SDS-PAGE of secreted Aβ, APP holoprotein and APP C-terminal fragments; assay type: cell-based, Chinese hamster; details: 5 mM LiCl or 100 μM DFK-167 for 24 hours
Method: To visualize the APP fragments, CHO695 cells plated on 6-well dishes were methionine-deprived for 30 minutes by incubation in methionine-free DMEM (Life Technologies, Inc., Grand Island, N.Y.) before adding 500 μCi ^35S-methionine (Perkin Elmer Life Sciences, Inc., Boston Mass.) per ml of DMEM with 5% dialyzed FBS (Invitrogen) and mg/ml L-proline for 2.5 hours. Medium was collected and cells (2 wells/sample) were rinsed twice with PBS (phosphate buffered saline), then scraped into RIPA buffer (a standard immunoprecipitation buffer, see, Harlow and Lane (eds.), In Antibodies: a laboratory manual, Cold Spring Harbor Laboratory Press, NY (1988)). Lysates were sonicated and centrifuged at 100,000×g for 20 minutes. Using protein A/G agarose beads (Santa Cruz Biotechnologies, Santa Cruz, Calif.), media was immunoprecipitated with the antibody BAN-50 (Suzuki et al., 1994) that recognizes Aβ amino acids 1-10, and cell lysates were immunoprecipitated with antibody 2493 (Lee et al., J. Biol. Chem. 278:[…] (2003)), which is a rabbit polyclonal antibody that recognizes the C-terminus of APP. Proteins were resolved by electrophoresis on 10/16% step gradient Tris-tricine polyacrylamide gels. Gels were fixed in 50% methanol+5% glycerol, dried, and exposed to a Phosphorlmager screen. […]

[2] = tested on: Aβ40 and Aβ42 production in CHO-APP695 cells; assay: Secreted Aβ40 and Aβ42 from CHO-APP695 cells, sandwich ELISA normalized to intracellular full-length APP; assay type: cell-based, Chinese hamster
Method: To investigate the role of GSK-3 in the production of peptides Aβ40 and Aβ42, Chinese hamster ovary (CHO) cells stably expressing APP (CHO-APP695) were treated with lithium chloride (LiCl), which is a direct inhibitor of GSK-3α and β (Phiel et al., 2001). CHO695 cells (available commercially, e.g., American Type Culture Collection (ATCC), Manassas, Va.) were maintained in culture in MEMα+5% fetal bovine serum (FBS) (e.g., BioWhittaker, Walkersville, Md.) with added penicillin/streptomycin and glutamine. Stocks of lithium chloride were prepared in sterile water. To quantify the Aβ40 and Aβ42 secretion following treatment with LiCl, the CHO-APP695 cells were plated in 6-well dishes at a density of 5×10^5 cells per well. LiCl was added to the cells in fresh medium, and media and cells were collected 24 hours later. Aβ determinations from the media were made by sandwich ELISA in femtomoles using the method of Suzuki et al., Science 264:1336-1340 (1994).
For comparison purposes, the results were normalized to levels of intracellular full-length APP. APP levels were quantified by SDS-PAGE followed by western immunoblotting with the amino-terminal APP antibody Karen (Turner et al., J. Biol. Chem. 271:8966-8970 (1996)), and visualized using ^125I-labelled secondary antibodies by Phosphorlmager analysis and ImageQuant software (Amersham Biosciences Corp, Piscataway, N.J.).
Stocks of kenpaullone (Calbiochem, La Jolla, Calif.) were prepared in DMSO. Secreted labeled Aβ secreted from CHO-APP695 cells was obtained as described in the preceding examples. Drugs were added to fresh medium, and medium and cells were collected, as described above, 24 hours later. Immunoprecipitates from the medium were SDS-PAGE separated and Phosphorlmager visualized.
Stocks of roscovitine (Calbiochem) were prepared in DMSO.

GSK-3α = assay: siRNA knock-down, GSK-3α protein by western blot in CHO-APP695 cells; assay type: cell-based, Chinese hamster
Method: (§1) CHO-APP695 cells were transfected with short interfering RNAs (siRNAs) directed against GSK-3α and GSK-3β as follows. RNA oligonucleotides were synthesized by Dharmacon, Inc. (Lafayette, Colo.) Sequences used were:
(§2) The dsRNA was produced using conditions described in Elbashir et al., 2001, supra. The siRNA was transfected into the CHO-APP695 cells plated in 6-well dishes using GenePORTER transfection reagent. The siRNA (25 nM) was co-transfected with 2 μg plasmid DNA. The siRNA against pGL3-luciferase (Pp-Luc) represents control transfection. […] Following transfection, the cells were cultured and harvested 48 hours later. GSK-3α and GSK-3β protein levels were examined using an antibody that recognized both GSK-3 isoforms (Calbiochem), and western blotted as above.

GSK-3β = assay: siRNA knock-down, GSK-3β protein by western blot in CHO-APP695 cells; assay type: cell-based, Chinese hamster; details: siRNA 25 nM, harvested 48 hours after transfection
Method: as §1, §2

[3] = tested on: Aβ40 and Aβ42 production in CHO-APP695 cells; assay: Aβ levels secreted from siRNA transfected CHO-APP695 cells; assay type: cell-based, Chinese hamster; details: siRNA 25 nM, 48 hours
Method: as §2
As graphically presented in FIG. 3b, Aβ levels (Aβ40 shown in light bars; […] shown in dark bars) secreted from siRNA and transfected cells in a representative experiment, were assessed as in FIG. 1. Error bars represent standard deviation. The experiment was repeated six times with similar results. As a result, the selective reduction of GSK-3 a protein decreased Aβ40 and Aβ42 levels by 45% and 43%, respectively (FIG. 3b). Asterisks indicate a significant difference from control, as determined by one-way ANOVA (p<0.05).

GSK-3 [4] = assay: β-catenin protein accumulation by western blot in CHO-APP695 cells; assay type: cell-based, Chinese hamster; details: kenpaullone 0.5, 2.0, 5.0 μM; LiCl 0.5, 2.0, 5.0 mM; FIG. 2b
Method: This was confirmed by western blot, in CHO-APP695 cells treated with kenpaullone (tested at concentrations of 0.5 μM, 2.0 μM and 5.0 μM, respectively) or lithium (0.5 mM, 2.0 mM and 5.0 mM LiCl) as shown in FIG. 2b. Roscovitine was added as a control (tested at concentrations of 0.5 μM, 2.0 μM and 5.0 μM, respectively) in FIG. 2b, as had been in the study summarized in FIG. 2a. A western blot for actin is was used as a loading control (see FIG. 2b).

GSK-3 [5] = assay: β-catenin/Tcf-dependent luciferase reporter (OT-Luc / Lef-OT) in CHO-APP695 cells; assay type: cell-based, Chinese hamster; parameters: dose or concentration left out as unconfirmed; details: FIG. 2c
Method: CHO-APP695 cells were transfected with a β-catenin-responsive reporter construct, OT-luciferase (OT-Luc) (shown in FIG. 2c as light bars), or a mutated reporter, OF-luciferase (OF-Luc) (shown in FIG. 2c as dark bars). OT-luciferase was provided by K. Kinzler and B Vogelstein.
After transfection, cells were treated with lithium (at concentrations of 0.5 mM, 2.0 mM and 5 mM LiCl, respectively), kenpaullone (at concentrations of […]) or roscovitine (at concentrations of […]) for 24 hours. Cells were harvested and luciferase assays performed.

[6] = tested on: cyclin-dependent kinases (cdks); details: in vitro; cited from earlier work

Compound: CCC(C)C(NC(=O)C(NC(=O)OC(C)(C)C)C(C)C)C(=O)NC(C)C(=O)C(F)(F)C(=O)NC(C(=O)NC(C(=O)OC)C(C)CC)C(C)C (stereo not drawn) [DFK-167] (Boc-VI[X1]VI-OMe; configuration not given here)
- steady-state levels of secreted Aβ peptides ([1]; FIG. 1b): dramatically reduce
- accumulation of APP C-terminal fragments (CTFs) ([1]; FIG. 1c): accumulation of APP CTFs

Compound: CC[C@H](CO)Nc1nc(NCc2ccccc2)c2ncn(C(C)C)c2n1 [roscovitine]
- effect on Aβ40 and Aβ42 ([2]; 2.0 μM and 5.0 μM, FIG. 2a): no effect

Compound: control siRNA: siRNA against pGL3-luciferase (Pp-Luc), SEQ ID NO:1 and 2, control transfection (chain 1 CUUACGCUGAGUACUUCGA; chain 2 UCGAAGUACUCAGCGUAAG; listed as RNA, chemistry not fully specified)
- GSK-3 expression (GSK-3α; control siRNA, both GSK-3 isoforms, FIG. 3a): no effect

Compound: [Cl-].[Na+] [NaCl, sodium chloride]
- effect on APP processing ([2]; 24 hours, FIG. 1a): no effect

Compound: GSK-3β directed siRNA: dsRNA of SEQ ID NO:3 (sense) and SEQ ID NO:4 (antisense) directed against GSK-3β (sense AUCUUUGGAGCCACUGAUU; antisense AAUCAGUGGCUCCAAAGAU; listed as RNA, chemistry not fully specified)
- GSK-3β protein level (GSK-3β): selectively reduces
- levels of secreted Aβ40 and Aβ42 [3]: modest increase

Compound: GSK-3α siRNA: dsRNA of SEQ ID NO:5 (sense) and SEQ ID NO:6 (antisense) directed against GSK-3α (sense UUCUACUCCAGUGGUGAGA; antisense UCUCACCACUGGAGUAGAA; listed as RNA, chemistry not fully specified)
- GSK-3α protein level (GSK-3α; siRNA 25 nM, harvested 48 hours after transfection): selectively reduces
- decrease of secreted Aβ40 level ([3]; FIG. 3b): 45%
- decrease of secreted Aβ42 level ([3]; FIG. 3b): 43%

Compound: O=C1Cc2c([nH]c3ccc(Br)cc23)-c2ccccc2N1 [kenpaullone]
- reduction of Aβ40 and Aβ42 secretion ([2]; 2.0 μM, 24 hours): 50%
- reduction of Aβ40 and Aβ42 secretion ([2]; 5.0 μM, 24 hours): greater than 90%
- accumulation of β-catenin protein (GSK-3 inhibition in cells) (GSK-3 [4]): accumulation of β-catenin protein
- activation of β-catenin/Tcf-dependent reporter Lef-OT (GSK-3 [5]): activation
- concentration needed for cdk inhibition relative to GSK-3 inhibition [6]: at least 20 fold
